The text below walks through data of patent US20240226211A9, “SEAWEED EXTRACTS, ISOLATED COMPOUNDS, AND METHODS OF TREATMENT” (University of Florida Research Foundation, Incorporated, priority 2017, published 2024).

The target in series [1] is T1, full-length human recombinant KEAP1 (Homo sapiens, UniProt Q14145).
T1 construct: cysteine residues of full-length human recombinant KEAP1 in vitro
The series can be described thus: LC-MS/MS mapping of cysteine adducts on recombinant KEAP1. It counts as binding. Particulars: excess CymQ. The source says: To obtain a global picture of cysteine modification of Keap1, rather than focusing on known functionally relevant residues, a proteomics approach was utilized, monitoring the effect of activated cymopol (CymQ) on cysteine residues of full-length human recombinant KEAP1 in vitro, similarly as described [Wang R, et al. (2013) In vitro and in vivo characterization of a tunable dual-reactivity probe of the Nrf2-ARE pathway. ACS Chem Biol 8(8):1764-1774; Hur W, et al. (2010) A small-molecule inducer of the antioxidant response element. Chem Biol 17(5):537-547]. Briefly, KEAP1 was treated with excess CymQ and adducts were mapped by LC-MS/MS in three separate experiments (five different conditions) using DTT, chymotrypsin and trypsin as the variables for different sample preparations, in order to capture more potential adducts. The most abundant modification observed was a mass increase of 242, resulting from an addition-elimination reaction of 5 (FIGS. 54 and 55) with loss of bromine, which is unique to CymQ compared with tBQ. Additional representative spectra for different types of tags can be found in SI Appendix, Fig. S4. […] Most ARE activators belong to class 1 of this cysteine code where Cys151 is readily modified, although contradictory results are shown for these compounds based on the experimental conditions used. […]

Series [2] is classed as physicochemical. The protocol: Silver oxide (14.2 mg) was added to a solution of cymopol 1 (6.6 mg) in dichloromethane (2.5 mL). The reaction mixture was stirred at room temperature for 15 min before being evaporated in vacuum. The crude product was purified by preparative TLC plate (ethyl acetate/hexane 1:4, v/v, Rf 0.8) to give 4.92 mg product 5 (75% yield).
In the next series the test system is NQO1. As to the kind of experiment: qPCR of NQO1 transcript in IMR-32 cells. It counts as cell-based, human. Conditions: 12 h. The protocol: The cells were seeded in 6-well format (see immunoblot) and treated with a solvent control (DMSO, 1%, v/v), isolated compounds, or extracts for 12 h. The RNeasy Mini Kit (Qiagen) was used to collect total RNA from cells, while for mouse tissue, TRIzol reagent (Invitrogen) was used. In each case, total RNAs (2 μg) were reverse-transcribed into cDNAs, which were used as templates for TaqMan gene expression assay (Applied Biosystems) and detected using the 7300 Real-Time PCR System (Applied Biosystems). Each qPCR sample was tested in triplicate as a 25 μL total reaction volume (12.5 μL of Taqman 2× universal master mix, 1.25 μL of a 20× TaqMan gene expression assay probe, 1 μL of the above cDNA, and 10.25 μL of RNase-free sterile water). The qPCR method was designed as following: 50° C. for 2 min, 95° C. for 10 min, and 40 cycles of 95° C. for 15 s and 60° C. for 1 min. Endogenous controls used included GAPDH for IMR-32 cells and β-actin to normalize for RAW264.7 cells and mouse tissues.

For series [3], the system named is ARE-luciferase reporter (human NQO1-ARE) in IMR-32 cells. As to the kind of experiment: ARE-luc reporter assay in IMR-32 cells. It counts as cell-based. Particulars: relative to Compounds 1 and 2; assay not specified. The source says: The ARE-luciferase reporter construct (ARE-luc) contains the core sequence of human NQO1-ARE1. The mock plasmid (pcDNA3-mRFP) was purchased from Addgene (plasmid 13032). The following plasmids were reported by Zhang et a/.2003 [Zhang, D. D., and Hannink, M. (2003) Distinct cysteine residues in Keap1 are required for Keap1-dependent ubiquitination of Nrf2 and for stabilization of Nrf2 by chemopreventive agents and oxidative stress. Mol. Cell. Biol. 23, 8137-8151]. The Keap1-CBD plasmid carries the entire open reading frame (ORF) of human Keap1 fused to the chitin binding domain (CBD) of the Bacillus circulans chitinase A1 gene upstream of the Keap1 stop codon. Oligonucleotide-directed mutagenesis was used to generate the Keap1-C151S-CBD and Keap1-C288S-CBD plasmids. The HA-Cul3 plasmid was constructed by fusing an N-terminal hemagglutinin (HA) tag with a cDNA sequence coding for amino acids 1-380 of human Cul3 gene. The Gal4-Neh2 expression vector contains the codons for the first 97 amino acids (Neh2 domain) of human Nrf2 fused to the ORF of the Gal4 DNA-binding domain
An ARE-luciferase reporter plasmid and CMV-GFP plasmid (to monitor transfection efficiency) were co-transfected into a human androgen-sensitive prostate cancer cell line, LNCaP (6×10^4 cells/well), and a human neuroblastoma cell line, IMR-32 (3×10^4 cells/well), using Fugene® HD (Roche Diagnostics) in 96-well format. […] J Biol Chem. 2002; 277:388-394; Lee J M, Hanson J M, Chu W A, Johnson J A. Phosphatidylinositol 3-kinase, not extracellular signal-regulated kinase, regulates activation of the antioxidant-responsive element in IMR-32 human neuroblastoma cells. […] After 24 hours of incubation, cells were treated with extracts from Cymopolia barbata, a negative control (DMSO, 1%, v/v), and a positive control ([…] sulforaphane, SF, and tert-butylhydroquinone, tBHQ, respectively.) 24 hours post-treatment, luciferase activity was detected using BriteLite detection reagent (PerkinElmer). […]
(In general: A reporter such as luciferase makes a cellular process visible.)

T1 sequence (Q14145 whole entry): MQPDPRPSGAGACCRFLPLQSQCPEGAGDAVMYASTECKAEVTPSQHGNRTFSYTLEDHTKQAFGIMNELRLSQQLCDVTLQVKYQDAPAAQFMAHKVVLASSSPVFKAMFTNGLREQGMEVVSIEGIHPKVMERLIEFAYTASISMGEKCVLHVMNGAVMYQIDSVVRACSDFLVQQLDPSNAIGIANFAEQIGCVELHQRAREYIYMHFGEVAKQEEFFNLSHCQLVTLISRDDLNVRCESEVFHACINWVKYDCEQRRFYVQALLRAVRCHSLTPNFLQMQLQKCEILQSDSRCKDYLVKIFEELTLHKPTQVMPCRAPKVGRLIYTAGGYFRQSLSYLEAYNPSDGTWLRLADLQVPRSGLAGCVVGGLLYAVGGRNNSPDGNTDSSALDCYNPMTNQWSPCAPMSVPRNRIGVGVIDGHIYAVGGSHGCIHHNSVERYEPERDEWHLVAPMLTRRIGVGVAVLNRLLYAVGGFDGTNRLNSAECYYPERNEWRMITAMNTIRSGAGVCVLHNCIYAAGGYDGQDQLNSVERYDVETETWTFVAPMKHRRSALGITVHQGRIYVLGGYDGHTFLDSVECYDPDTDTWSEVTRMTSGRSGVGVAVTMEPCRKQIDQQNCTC

On to cymopol quinone [Compound 5], for which, in series [1], the “alkylation of highly reactive cysteines including Cys151” value is “failed to alkylate” and the “number of KEAP1 cysteines modified” value worked out at 10. The stability in air result in series [2] is reported as “not stable in air”. Also, in the series with NQO1, the “Nqo1 transcript induction by quinone versus hydroquinone counterpart” value is given as “retained the bioactivity”.

On to `C=C1CCC(Br)C(C)(C)C1Cc1cc(OC)c(Br)cc1O` (stereo not drawn) [Compound 4, 5-bromo-2-((3-bromo-2,2-dimethyl-6-methylenecyclohexyl)methyl)-4-methoxyphenol], for which the anti-oxidant efficacy result in series [3] is on record as “reduced anti-oxidant efficacy”.

Regarding `CC12CCC(Br)C(C)(C)C1Cc1cc(O)c(Br)cc1O2` (stereo not drawn) [Compound 3, 2,6-dibromo-1,1,4a-trimethyl-2,3,4,4a,9,9a-hexahydro-1H-xanthen-7-ol], in series [3], the anti-oxidant efficacy entry was “reduced anti-oxidant efficacy”.
